From PubChem BioAssay (NCI)
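The compound was tested at five concentrations on cells cultured in 96-well plates, with a 48-hour exposure period. GI50: concentration for 50% inhibition of growth. TGI: total growth inhibition.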

Legend:
Experiment in all cases: growth of human tumour cells (NCI), 48 h
NCI-H226 lung = tested on: NCI-H226 lung
NCI-H23 lung = tested on: NCI-H23 lung
NCI-H460 lung = tested on: NCI-H460 lung
NCI-H522 lung = tested on: NCI-H522 lung
NCI/ADR-RES ovarian = tested on: NCI/ADR-RES ovarian
OVCAR-3 ovarian = tested on: OVCAR-3 ovarian
OVCAR-4 ovarian = tested on: OVCAR-4 ovarian
OVCAR-5 ovarian = tested on: OVCAR-5 ovarian
OVCAR-8 ovarian = tested on: OVCAR-8 ovarian
PC-3 prostate = tested on: PC-3 prostate
RPMI-8226 leukemia = tested on: RPMI-8226 leukemia
RXF 393 renal = tested on: RXF 393 renal
SF-268 CNS = tested on: SF-268 CNS
SF-295 CNS = tested on: SF-295 CNS
SF-539 CNS = tested on: SF-539 CNS
SK-MEL-2 melanoma = tested on: SK-MEL-2 melanoma
SK-MEL-28 melanoma = tested on: SK-MEL-28 melanoma
SK-MEL-5 melanoma = tested on: SK-MEL-5 melanoma
SK-OV-3 ovarian = tested on: SK-OV-3 ovarian
SN12C renal = tested on: SN12C renal
SNB-19 CNS = tested on: SNB-19 CNS
SR leukemia = tested on: SR leukemia
SW-620 colon = tested on: SW-620 colon
T-47D breast = tested on: T-47D breast
TK-10 renal = tested on: TK-10 renal
U251 CNS = tested on: U251 CNS
UACC-257 melanoma = tested on: UACC-257 melanoma
UACC-62 melanoma = tested on: UACC-62 melanoma
UO-31 renal = tested on: UO-31 renal

## COc1ccc(C(=O)/C=C/c2ccc3ccccc3c2)cc1S(N)(=O)=O
NCI-H226 lung
  GI50: 2360 nM
  TGI: 8.37 µM
NCI-H23 lung
  GI50: 1730 nM
  TGI: 3.3 µM
NCI-H460 lung
  GI50: 2960 nM
  TGI: 8.84 µM
NCI-H522 lung
  GI50: 1620 nM
  TGI: 3.32 µM
NCI/ADR-RES ovarian
  GI50: 2700 nM
  TGI: 8.21 µM
OVCAR-3 ovarian
  GI50: 1580 nM
  TGI: 3.38 µM
OVCAR-4 ovarian
  GI50: 2960 nM
  TGI: 10.9 µM
OVCAR-5 ovarian
  GI50: 1750 nM
  TGI: 4.15 µM
OVCAR-8 ovarian
  GI50: 2480 nM
  TGI: 7.04 µM
PC-3 prostate
  GI50: 1780 nM
  TGI: 4.05 µM
RPMI-8226 leukemia
  GI50: 1630 nM
  TGI: 4.62 µM
RXF 393 renal
  GI50: 1570 nM
  TGI: 3.34 µM
SF-268 CNS
  GI50: 3.2 µM
  TGI: 13.3 µM
SF-295 CNS
  GI50: 1880 nM
  TGI: 4.89 µM
SF-539 CNS
  GI50: 1690 nM
  TGI: 3.15 µM
SK-MEL-2 melanoma
  GI50: 12.2 µM
  TGI: 25.4 µM
SK-MEL-28 melanoma
  GI50: 2130 nM
  TGI: 5.14 µM
SK-MEL-5 melanoma
  GI50: 3.48 µM
  TGI: 13.6 µM
SK-OV-3 ovarian
  GI50: 4.91 µM
  TGI: 18.6 µM
SN12C renal
  GI50: 1560 nM
  TGI: 3.25 µM
SNB-19 CNS
  GI50: 2150 nM
  TGI: 5.95 µM
SR leukemia
  GI50: 867 nM
  TGI: 3.54 µM
SW-620 colon
  GI50: 1780 nM
  TGI: 3.6 µM
T-47D breast
  GI50: 1760 nM
  TGI: 6.77 µM
TK-10 renal
  GI50: 2040 nM
  TGI: 8.17 µM
U251 CNS
  GI50: 1190 nM
  TGI: 2460 nM
UACC-257 melanoma
  GI50: 3.79 µM
  TGI: 14.5 µM
UACC-62 melanoma
  GI50: 1600 nM
  TGI: 3.32 µM
UO-31 renal
  GI50: 1310 nM
  TGI: 2580 nM
